Literature values in patent US20250134829A1, “LOW-DOSE, STABLE-RELEASE TRANSDERMAL PREPARATION AND PATCH, AND METHOD FOR THEIR PRODUCTION” (PÉCSI TUDOMÁNYEGYETEM, priority 2022, published 2025).

Columns and labels:
[1] = test system: capsaicin-sensitive sensory nerve endings; conditions: high dose (6-8%) of capsaicin locally
[2] = test system: patients suffering from low back pain; conditions: topical nonivamide treatment

SMILES	duration of disabling of the capsaicin-sensitive sensory nerve endings (desensitization) [1]	plasma level of the neuropeptide somatostatin [2]
COc1cc(CNC(=O)CCCC/C=C/C(C)C)ccc1O [capsaicin]	2-3 months	–
CCCCCCCCC(=O)NCc1ccc(O)c(OC)c1 [nonivamide]	–	threefold increase
